What was measured:
SHIP2 = target: T1, SHIP2 (Homo sapiens, UniProt O15357); experiment: Malachite Green phosphate release assay, SHIP2; format: biochemical; conditions: at 1 mM
T1 sequence (O15357 1-1258): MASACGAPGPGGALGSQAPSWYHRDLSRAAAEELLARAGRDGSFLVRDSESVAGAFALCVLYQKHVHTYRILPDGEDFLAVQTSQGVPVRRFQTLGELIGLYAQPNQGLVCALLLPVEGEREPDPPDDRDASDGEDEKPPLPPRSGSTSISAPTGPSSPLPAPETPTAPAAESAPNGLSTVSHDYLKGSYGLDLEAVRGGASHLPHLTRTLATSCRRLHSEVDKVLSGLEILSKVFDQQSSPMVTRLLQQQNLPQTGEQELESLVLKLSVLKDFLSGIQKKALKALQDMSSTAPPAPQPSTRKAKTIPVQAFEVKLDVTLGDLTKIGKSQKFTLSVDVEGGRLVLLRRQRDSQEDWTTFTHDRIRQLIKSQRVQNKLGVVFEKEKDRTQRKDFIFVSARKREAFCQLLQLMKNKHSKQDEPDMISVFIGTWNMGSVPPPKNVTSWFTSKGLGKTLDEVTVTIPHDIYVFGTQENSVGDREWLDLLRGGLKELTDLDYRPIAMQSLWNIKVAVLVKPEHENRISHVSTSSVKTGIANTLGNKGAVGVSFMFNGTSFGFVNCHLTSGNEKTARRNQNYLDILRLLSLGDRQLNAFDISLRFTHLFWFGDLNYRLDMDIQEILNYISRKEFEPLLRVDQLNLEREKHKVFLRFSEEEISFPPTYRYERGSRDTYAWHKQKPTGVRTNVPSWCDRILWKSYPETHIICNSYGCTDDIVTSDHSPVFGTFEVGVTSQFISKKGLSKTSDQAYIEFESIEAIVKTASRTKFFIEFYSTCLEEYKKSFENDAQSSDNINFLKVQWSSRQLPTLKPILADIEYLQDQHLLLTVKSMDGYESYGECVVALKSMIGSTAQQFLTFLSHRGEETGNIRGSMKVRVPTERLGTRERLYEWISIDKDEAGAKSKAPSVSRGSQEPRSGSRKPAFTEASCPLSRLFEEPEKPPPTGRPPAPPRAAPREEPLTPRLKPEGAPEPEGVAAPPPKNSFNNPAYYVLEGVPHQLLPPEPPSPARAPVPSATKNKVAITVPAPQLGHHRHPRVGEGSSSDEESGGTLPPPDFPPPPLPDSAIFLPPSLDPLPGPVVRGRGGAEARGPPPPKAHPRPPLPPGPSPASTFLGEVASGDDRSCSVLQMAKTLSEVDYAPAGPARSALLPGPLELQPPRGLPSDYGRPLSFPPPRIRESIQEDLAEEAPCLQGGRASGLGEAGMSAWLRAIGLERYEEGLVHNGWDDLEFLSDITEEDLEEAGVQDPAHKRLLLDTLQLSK

[1] = system: human multiple myeloma cell lines U266, RPMI8226 and OPM2; experiment: MTT dye assay of multiple myeloma cell lines; format: cell-based; conditions: increasing concentrations
Text: (§1) (A) SHIP1 expression in human multiple myeloma (MM) cell lines as presented in the western blot analysis. SHIP is expressed in the human multiple myeloma cell lines U266, RPMI8226 and OPM2. The expression in the MM cell lines is shown relative to that observed in MG63 and HS-5 cell lines. MG63 is an osteosarcoma cell line, and HS-5 is a human bone marrow stroma cell line. […] Actin is provided as a control. (B) Results of MTT dye assays of MM cell lines. […] RUO is “relative units optical”. (C) Apoptosis in OPM and RPMI cell lines at increasing concentrations of 3α-aminocholestane.

[2] = system: human multiple myeloma cell lines OPM and RPMI; experiment: Apoptosis (annexin positive cells) in multiple myeloma cell lines; format: cell-based; conditions: increasing concentrations
Text: as §1

NK1.1+CD3- NK cells = experiment: NK cell compartment in spleens of treated mice; format: in vivo, mouse; conditions: mice treated daily for 6 days, spleen on day 7
Protocol: Mice were treated daily for 6 days with either NSC13480, vehicle alone (Vehicle) or were non-manipulated (Normal). On the 7th day the spleens of the mice were analyzed for NK cell content (NK1.1+CD3− cells) and for expression of the MHC-I inhibitory receptor Ly49G2.
SHIP-deficiency expands the peripheral NK compartment and disrupts the repertoire of receptors elaborated by NK cells that recognize MHC-I ligands. The NK cell compartment was examined in NSC13480-treated mice to determine if inhibition of SHIP enzymatic activity in vivo could also lead to similar disruptions in the NK cell compartment. […] Ly49G2 is an MHC-I inhibitory receptor shown to be under-represented in SHIP^−/− mice.
Antibody staining and flow cytometry (Examples 1-6): Anti-CD16/32 was co-incubated with the samples to block Fc receptor binding. Antibodies used for staining included: NK1.1 (PK136); CD3e (145-2C11); Ly49G2 (4D11); Gr-1 (RB6-8C5); Mac-1(M1/70); CD11c (HL3); CD4 (GK1.5); CD25 (PC61) and were obtained from BD Pharmingen (San Jose, Calif.). FoxP3 (FJK-16s) was purchased from eBioScience (San Diego, Calif.). All samples were acquired on a FACSCalibur and analyzed using FlowJo8.7.1. For viable staining, dead cells were excluded from the analysis following cytometer acquisition of data by exclusion of the 7AAD dye. […]

Compound | inhibition of SHIP2 activity (SHIP2) | viability of multiple myeloma cell lines [1] | apoptosis (percent annexin positive cells) [2] | frequency of Ly49G2+ NK cells (NK1.1+CD3- NK cells) | splenic NK cell numbers (NK1.1+CD3- NK cells)
CC(C)CCC[C@@H](C)[C@H]1CC[C@H]2[C@@H]3CC[C@H]4C[C@H](N)CC[C@]4(C)[C@H]3CC[C@]12C [NSC23922, (3R,5S,8R,9S,10S,13R,14S,17R)-10,13-dimethyl-17-[(2R)-6-methylheptan-2-yl]-2,3,4,5,6,7,8,9,11,12,14,15,16,17-tetradecahydro-1H-cyclopenta[a]phenanthren-3-amine] | fails to inhibit | decrease in viability | apoptosis occurs |  | 
OC(c1cc(-c2ccccc2)nc2c1ccc1ccccc12)C1CCCCN1 (centres unmarked) [NSC13480, (2-phenylbenzo[h]quinolin-4-yl)-piperidin-2-ylmethanol] |  |  |  | much reduced frequency | significant increase
